For three molecules, kcat and kcat/Km results are on record in ChEMBL document CHEMBL1671790, “A new β-carbonic anhydrase from Brucella suis, its cloning, characterization, and inhibition with sulfonamides and sulfamates, leading to impaired pathogen growth” (Bioorg Med Chem, 2011).

For data set [1], the system named is O=C=O. The experiment in a line: Activity at human carbonic anhydrase II by spectrophotometry at pH 7.5.
The test system of data set [2] is O=C=O. The experiment in a line: Ratio of kcat to Km for human carbonic anhydrase II.
Data set [3] has as its system O=C=O. The following applies: Homo sapiens.
Data set [4] relates to O=C=O. The experiment in a line: Ratio of kcat to Km for human carbonic anhydrase I.
Data set [5] deals with Brucella suis.
Data set [6] deals with Brucella suis. The source holds these as a separate data set.
The test system of data set [7] is Brucella suis. The experiment in a line: Ratio of kcat to Km for Brucella suis carbonic anhydrase I.
The test system of data set [8] is Brucella suis. Nature of the data set: Ratio of kcat to Km for Brucella suis carbonic anhydrase II.
Data set [9] concerns Helicobacter pylori. Nature of the data set: Ratio of kcat to Km for Helicobacter pylori beta-carbonic anhydrase.
Data set [10] concerns Helicobacter pylori. The experiment in a line: Activity at Helicobacter pylori beta-carbonic anhydrase by spectrophotometry at pH 8.3.

Sequence of Carbonic anhydrase 1 (Homo sapiens), P00915 (P00915 whole entry): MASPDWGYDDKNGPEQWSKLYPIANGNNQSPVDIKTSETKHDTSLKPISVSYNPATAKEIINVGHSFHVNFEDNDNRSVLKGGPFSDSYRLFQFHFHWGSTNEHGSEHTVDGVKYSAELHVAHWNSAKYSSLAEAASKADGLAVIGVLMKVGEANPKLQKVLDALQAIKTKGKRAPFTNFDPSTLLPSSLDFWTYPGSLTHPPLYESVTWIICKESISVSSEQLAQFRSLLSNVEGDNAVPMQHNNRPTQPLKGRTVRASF

On to “Carbonic anhydrase 2 (Homo sapiens) (from UniProt P00918)”, for which, in [1], the kcat is 1.4 ×10⁶ /s. In addition, the kcat/Km in data set [2] amounted to 1.5 ×10⁸ /M/s.
For “Carbonic anhydrase 1 (Homo sapiens), P00915”, the kcat in data set [3] turned out to be 2 ×10⁵ /s. Further, the kcat/Km in [4] was 5 ×10⁷ /M/s.
As to `O=C=O`, the kcat turned out to be 1.1 ×10⁶ /s in [5], 6.4 ×10⁵ /s in data set [6] and 7.1 ×10⁵ /s in [10]. In addition, the kcat/Km in data set [7] turned out to be 3.9 ×10⁷ /M/s; in data set [8], 8.9 ×10⁷ /M/s; in [9] it was 4.8 ×10⁷ /M/s.
